Here are results for 25 compounds from patent EP2025678A1, “Pyrazolo[3,4-d]pyrimidine compounds and their use as modulators of protein kinase” (Oncalis AG, priority 2007, dated 2009).

pIC50: −log10 of the molar value.

Test [1] concerns the target T1, human EphB4 (Homo sapiens, UniProt P54760).
T1 sequence (P54760 16-987): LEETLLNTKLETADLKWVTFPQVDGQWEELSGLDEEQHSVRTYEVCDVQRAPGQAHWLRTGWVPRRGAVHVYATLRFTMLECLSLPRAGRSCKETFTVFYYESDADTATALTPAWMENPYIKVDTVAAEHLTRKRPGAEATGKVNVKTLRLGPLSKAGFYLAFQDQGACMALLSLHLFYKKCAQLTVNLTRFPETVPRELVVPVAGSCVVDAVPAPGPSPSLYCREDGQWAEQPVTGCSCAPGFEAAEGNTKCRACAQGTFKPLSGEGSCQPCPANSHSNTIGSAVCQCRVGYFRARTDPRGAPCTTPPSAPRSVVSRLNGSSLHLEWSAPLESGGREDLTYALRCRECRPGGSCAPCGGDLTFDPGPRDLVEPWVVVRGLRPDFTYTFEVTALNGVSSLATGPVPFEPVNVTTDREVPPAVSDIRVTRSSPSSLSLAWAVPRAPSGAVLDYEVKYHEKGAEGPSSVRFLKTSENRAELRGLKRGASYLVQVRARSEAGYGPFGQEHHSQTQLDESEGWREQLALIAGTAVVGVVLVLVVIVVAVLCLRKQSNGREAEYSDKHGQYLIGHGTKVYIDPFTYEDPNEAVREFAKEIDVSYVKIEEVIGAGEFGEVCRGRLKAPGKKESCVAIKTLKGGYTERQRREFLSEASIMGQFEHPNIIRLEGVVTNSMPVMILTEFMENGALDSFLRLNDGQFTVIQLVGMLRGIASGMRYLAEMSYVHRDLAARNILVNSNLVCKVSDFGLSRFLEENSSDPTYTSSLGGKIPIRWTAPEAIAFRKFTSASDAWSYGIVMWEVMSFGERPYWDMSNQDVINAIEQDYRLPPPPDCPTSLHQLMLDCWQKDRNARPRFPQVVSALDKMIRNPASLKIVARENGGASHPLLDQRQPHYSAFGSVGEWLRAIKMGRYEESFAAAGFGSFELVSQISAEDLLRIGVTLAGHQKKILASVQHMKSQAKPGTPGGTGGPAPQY
The test can be described thus: Cellular autophosphorylation assay EphB4 (ELISA) in CHO-EphB4 cells. The following applies: ephrinB2/Fc induced autophosphorylation. In kind it is cell-based. The arrangement: stably transfected with myc-tagged full length human EphB4; expressed in transfected cells; host or cells: CHO (chinese hamster ovary). On the procedure:
CHO (chinese hamster ovary) cells were stably transfected with myc-tagged full length human EphB4. A cell line expressing EphB4 of which the phosphorylation was inducible with ephrinB2/Fc was identified and called CHO-EphB4. CHO-EphB4 cells were seeded into 96-well plates and cultured overnight in HAM-F12 medium supplemented with 10% fetal calf serum (FCS). Cells were washed once with PBS and different concentrations of compounds in HAM-F12 medium (final concentration of DMSO in the assay was 1%) were added. Cells were incubated at 37°C for 15 minutes. Ligand ephrinB2/Fc (R&D Systems, 1ug/mL final), which had been pre-clustered with anti-IgG Fc antibody (Jackson ImmunoResearch) for 45 minutes at room temperature, was added and cells were further incubated at 37°C for 45 minutes. Cells were lysed in 30uL lysis buffer per well (20mM Tris pH8, 150mM NaCl, 10% glycerol, 1% Triton X-100, 1mM Na3VO4, 1mM EDTA pH8, 1mM EGTA pH8, 1x protease inhibitor cocktail Sigma). ELISA 96-well plates (Nunc, Maxisorp) were coated with 100uL/well anti-c-myc antibody (Sigma) overnight at 4°C, blocked with 300uL/well 5% milk in TBS/0.005% Tween 20 (TBST) for 1 to 3 hours at room temperature, and incubated with 25uL/well cell lysate overnight at 4°C. ELISA plates were washed twice with TBST and incubated with 100uL/well antiphosphotyrosine HRP-coupled antibody (Upstate) diluted 1:1000 in 5% milk in TBST for 1.5 hour at room temperature and developed with 100uL/well BM BluePOD substrate (Roche). Absorbance was measured at 450nm.
(ELISA stands for enzyme-linked immunosorbent assay.)

Test [2] deals with T1, human EphB4. The test is described as follows: in vitro enzymatic kinase assay EphB4 (ADP Hunter assay kit). The format is biochemical. The following applies: cell-free; ATP 300uM; poly (Glu4-Tyr) 800uM. On the procedure:
EphB4 inhibition activity of compounds was measured in an in vitro enzymatic kinase assay using the ADP Hunter assay kit (DiscoveRx Corp.), which measures accumulation of ADP produced by the kinase enzyme activity. EphB4 kinase (2ug/mL) is preincubated with different concentrations of compounds for 15 minutes at room temperature in kinase buffer (HEPES 15mM, MgCl2 10mM, EDTA 0.5mM, NaCl 20mM, Tween-20 0.02%, pH 7.4). ATP (300uM) is added and the mixture is incubated for 30 minutes at room temperature for enzyme activation. The peptide substrate poly (Glu4-Tyr) 800uM is added and the mixture is incubated for 60 minutes at 30°C. An enzyme- coupled reaction produces a red-shifted fluorescent signal that is directly proportional to the amount of ADP in solution. Fluorescence emission is measured at 590nm with excitation at 535nm.

Another test deals with T2, EGFR (Homo sapiens, UniProt P00533).
T2 construct: expressed in transfected cells; host or cells: yeast
The test is described as follows: yeast growth assay, specificity profiling, EGFR. In kind it is cell-based. The following applies: Table Y; legend not given. On the procedure: (§1) The yeast growth assay was performed as described in "Method for the identification and/or validation of receptor tyrosine kinase inhibitors" WO2005/040413, section "Modes for Carrying out the Invention", Experiment 1 and Experiment 2: Yeast cells carrying plasmids with the RTK of interest were grown in glucose containing medium (repressing expression). Cultures were diluted into galactose containing medium, which induces expression of the kinase. Expression of the kinase inhibits growth of the yeast cells, which allows for positive selection of kinase inhibitors restoring growth of cells.

The target in the next test is T3, c-Met (Homo sapiens, UniProt P08581).
T3 construct: expressed in transfected cells; host or cells: yeast
The test can be described thus: yeast growth assay, specificity profiling, c-Met. In kind it is cell-based. The following applies: Table Y; legend not given. How it is done: as §1

A further test deals with T4, VEGFR-2 (Homo sapiens, UniProt P35968).
T4 construct: expressed in transfected cells; host or cells: yeast
The test can be described thus: yeast growth assay, specificity profiling, VEGFR-2. The following applies: Table Y; legend not given. The format is cell-based. How it is done:
as §1

For a further test, the target named is T5, ErbB2 (Homo sapiens, UniProt P04626).
T5 construct: expressed in transfected cells; host or cells: yeast
The test can be described thus: yeast growth assay, specificity profiling, ErbB2. The format is cell-based. The following applies: Table Y; legend not given. How it is done: as §1

A further test addresses T6, VEGFR-1 (Homo sapiens, UniProt P17948).
T6 construct: expressed in transfected cells; host or cells: yeast
The test is described as follows: yeast growth assay, specificity profiling, VEGFR-1. The format is cell-based. The following applies: Table Y; legend not given. On the procedure:
as §1

The next test concerns the target T7, PDGFRb (Homo sapiens, UniProt P09619).
T7 construct: expressed in transfected cells; host or cells: yeast
The test can be described thus: yeast growth assay, specificity profiling, PDGFRb. In kind it is cell-based. The following applies: Table Y; legend not given. On the procedure:
as §1

The target of a further test is T8, IGF1R (Homo sapiens, UniProt P08069).
T8 construct: expressed in transfected cells; host or cells: yeast
The test can be described thus: yeast growth assay, specificity profiling, IGF1R. The following applies: Table Y; legend not given. The format is cell-based. On the procedure:
as §1

In a further test the target is T9, InsR (Homo sapiens, UniProt P06213).
T9 construct: expressed in transfected cells; host or cells: yeast
The test is described as follows: yeast growth assay, specificity profiling, InsR. The format is cell-based. The following applies: Table Y; legend not given. On the procedure:
as §1

T4 sequence (P35968 20-1356): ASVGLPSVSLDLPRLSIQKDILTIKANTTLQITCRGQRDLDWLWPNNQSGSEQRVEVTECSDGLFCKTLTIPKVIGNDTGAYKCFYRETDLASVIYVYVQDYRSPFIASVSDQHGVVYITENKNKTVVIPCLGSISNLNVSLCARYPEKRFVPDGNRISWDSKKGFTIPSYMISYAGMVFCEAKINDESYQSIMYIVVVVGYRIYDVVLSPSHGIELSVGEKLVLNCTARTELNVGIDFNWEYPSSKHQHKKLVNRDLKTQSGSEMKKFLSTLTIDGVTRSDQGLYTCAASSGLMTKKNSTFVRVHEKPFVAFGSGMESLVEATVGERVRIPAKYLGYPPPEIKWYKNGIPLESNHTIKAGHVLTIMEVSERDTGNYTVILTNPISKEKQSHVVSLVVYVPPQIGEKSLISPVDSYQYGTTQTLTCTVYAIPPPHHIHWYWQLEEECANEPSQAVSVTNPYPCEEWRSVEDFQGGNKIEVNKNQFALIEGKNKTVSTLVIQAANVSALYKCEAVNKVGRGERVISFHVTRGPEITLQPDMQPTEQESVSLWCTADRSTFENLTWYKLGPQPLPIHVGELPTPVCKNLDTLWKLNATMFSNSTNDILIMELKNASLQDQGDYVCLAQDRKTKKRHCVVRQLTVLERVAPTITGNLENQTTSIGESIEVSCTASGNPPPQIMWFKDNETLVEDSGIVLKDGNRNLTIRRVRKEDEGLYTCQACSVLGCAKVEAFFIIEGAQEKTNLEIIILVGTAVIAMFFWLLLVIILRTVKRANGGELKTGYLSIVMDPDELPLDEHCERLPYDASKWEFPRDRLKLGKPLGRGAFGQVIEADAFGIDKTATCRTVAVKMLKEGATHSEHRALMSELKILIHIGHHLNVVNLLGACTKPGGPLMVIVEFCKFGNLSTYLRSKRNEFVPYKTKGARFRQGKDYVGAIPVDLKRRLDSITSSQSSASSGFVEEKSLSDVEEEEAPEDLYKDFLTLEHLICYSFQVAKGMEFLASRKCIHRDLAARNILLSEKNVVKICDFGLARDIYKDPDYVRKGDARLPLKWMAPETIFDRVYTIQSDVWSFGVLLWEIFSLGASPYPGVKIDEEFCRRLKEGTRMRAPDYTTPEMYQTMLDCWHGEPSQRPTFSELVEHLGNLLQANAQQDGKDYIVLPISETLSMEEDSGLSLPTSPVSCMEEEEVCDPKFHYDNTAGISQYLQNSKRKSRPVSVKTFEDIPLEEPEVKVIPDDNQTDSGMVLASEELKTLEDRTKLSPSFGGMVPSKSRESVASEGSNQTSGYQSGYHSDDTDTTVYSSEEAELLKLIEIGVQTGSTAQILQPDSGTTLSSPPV
T9 sequence (P06213 28-1382): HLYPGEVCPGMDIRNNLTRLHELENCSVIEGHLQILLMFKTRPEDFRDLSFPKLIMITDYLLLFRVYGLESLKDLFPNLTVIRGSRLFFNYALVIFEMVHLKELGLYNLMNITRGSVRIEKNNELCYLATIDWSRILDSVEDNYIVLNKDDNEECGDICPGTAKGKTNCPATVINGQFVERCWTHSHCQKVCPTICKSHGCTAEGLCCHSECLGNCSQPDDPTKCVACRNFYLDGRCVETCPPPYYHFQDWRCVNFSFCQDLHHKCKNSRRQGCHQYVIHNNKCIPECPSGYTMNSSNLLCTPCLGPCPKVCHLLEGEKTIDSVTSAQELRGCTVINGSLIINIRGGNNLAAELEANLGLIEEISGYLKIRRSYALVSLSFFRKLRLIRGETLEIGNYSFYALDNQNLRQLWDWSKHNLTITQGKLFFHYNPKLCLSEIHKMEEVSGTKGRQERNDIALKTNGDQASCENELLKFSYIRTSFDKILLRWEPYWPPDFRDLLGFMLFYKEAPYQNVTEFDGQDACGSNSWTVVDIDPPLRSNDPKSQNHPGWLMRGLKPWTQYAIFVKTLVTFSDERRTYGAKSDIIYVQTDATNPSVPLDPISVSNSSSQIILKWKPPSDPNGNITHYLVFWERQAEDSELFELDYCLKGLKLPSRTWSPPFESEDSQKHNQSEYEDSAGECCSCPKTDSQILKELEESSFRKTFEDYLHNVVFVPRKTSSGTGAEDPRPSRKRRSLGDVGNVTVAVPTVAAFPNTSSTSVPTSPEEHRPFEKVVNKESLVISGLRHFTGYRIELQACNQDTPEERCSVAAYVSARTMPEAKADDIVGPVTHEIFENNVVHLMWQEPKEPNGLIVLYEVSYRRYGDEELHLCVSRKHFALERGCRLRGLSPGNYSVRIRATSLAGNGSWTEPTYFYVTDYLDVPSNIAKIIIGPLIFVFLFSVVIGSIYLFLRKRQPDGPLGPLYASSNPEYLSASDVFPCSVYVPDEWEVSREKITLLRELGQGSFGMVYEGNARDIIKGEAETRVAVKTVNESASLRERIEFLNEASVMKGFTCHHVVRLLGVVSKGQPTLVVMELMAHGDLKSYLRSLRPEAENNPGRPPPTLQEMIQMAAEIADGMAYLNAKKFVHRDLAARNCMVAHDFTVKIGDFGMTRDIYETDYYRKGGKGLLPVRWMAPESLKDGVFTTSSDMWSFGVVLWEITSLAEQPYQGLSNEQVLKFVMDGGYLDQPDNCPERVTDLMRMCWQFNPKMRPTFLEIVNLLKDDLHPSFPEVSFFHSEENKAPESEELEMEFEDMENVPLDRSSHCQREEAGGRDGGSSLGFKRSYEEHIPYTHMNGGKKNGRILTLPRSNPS
T3 sequence (P08581 25-1390): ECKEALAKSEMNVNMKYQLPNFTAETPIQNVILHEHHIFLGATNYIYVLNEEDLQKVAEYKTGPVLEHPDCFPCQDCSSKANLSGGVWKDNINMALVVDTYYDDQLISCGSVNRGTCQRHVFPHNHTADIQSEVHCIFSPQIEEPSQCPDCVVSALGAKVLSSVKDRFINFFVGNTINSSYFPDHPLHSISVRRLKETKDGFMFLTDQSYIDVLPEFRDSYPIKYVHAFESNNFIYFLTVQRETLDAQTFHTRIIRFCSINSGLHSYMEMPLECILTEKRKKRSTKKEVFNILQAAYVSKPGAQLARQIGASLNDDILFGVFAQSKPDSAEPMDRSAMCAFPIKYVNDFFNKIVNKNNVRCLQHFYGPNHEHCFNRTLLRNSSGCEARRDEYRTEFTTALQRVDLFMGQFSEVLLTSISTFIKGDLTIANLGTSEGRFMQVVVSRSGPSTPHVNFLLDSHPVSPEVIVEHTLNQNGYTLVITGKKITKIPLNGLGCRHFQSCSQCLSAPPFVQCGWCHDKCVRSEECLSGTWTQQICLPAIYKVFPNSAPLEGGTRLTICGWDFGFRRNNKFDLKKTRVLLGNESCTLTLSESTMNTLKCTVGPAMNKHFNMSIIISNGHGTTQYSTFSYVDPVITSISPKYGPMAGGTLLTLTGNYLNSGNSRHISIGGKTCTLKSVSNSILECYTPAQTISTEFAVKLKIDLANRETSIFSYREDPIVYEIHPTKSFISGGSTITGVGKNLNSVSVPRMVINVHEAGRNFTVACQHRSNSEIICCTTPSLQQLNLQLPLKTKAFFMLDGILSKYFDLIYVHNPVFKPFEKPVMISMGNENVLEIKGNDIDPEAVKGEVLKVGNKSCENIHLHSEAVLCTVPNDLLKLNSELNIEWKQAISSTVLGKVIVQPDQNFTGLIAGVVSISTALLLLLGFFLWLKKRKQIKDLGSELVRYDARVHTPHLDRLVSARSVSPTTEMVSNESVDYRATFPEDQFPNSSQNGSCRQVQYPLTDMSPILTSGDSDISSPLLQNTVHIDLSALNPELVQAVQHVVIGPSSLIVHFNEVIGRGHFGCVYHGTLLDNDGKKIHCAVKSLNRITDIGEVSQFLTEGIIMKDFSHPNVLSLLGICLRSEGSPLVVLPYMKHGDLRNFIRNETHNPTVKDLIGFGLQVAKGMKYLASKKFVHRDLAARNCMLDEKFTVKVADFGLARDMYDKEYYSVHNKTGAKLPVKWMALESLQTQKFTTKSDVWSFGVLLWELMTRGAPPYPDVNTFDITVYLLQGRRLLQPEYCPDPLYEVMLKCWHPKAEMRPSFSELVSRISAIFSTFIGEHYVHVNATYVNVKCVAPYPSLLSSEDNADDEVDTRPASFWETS
T7 sequence (P09619 33-1106): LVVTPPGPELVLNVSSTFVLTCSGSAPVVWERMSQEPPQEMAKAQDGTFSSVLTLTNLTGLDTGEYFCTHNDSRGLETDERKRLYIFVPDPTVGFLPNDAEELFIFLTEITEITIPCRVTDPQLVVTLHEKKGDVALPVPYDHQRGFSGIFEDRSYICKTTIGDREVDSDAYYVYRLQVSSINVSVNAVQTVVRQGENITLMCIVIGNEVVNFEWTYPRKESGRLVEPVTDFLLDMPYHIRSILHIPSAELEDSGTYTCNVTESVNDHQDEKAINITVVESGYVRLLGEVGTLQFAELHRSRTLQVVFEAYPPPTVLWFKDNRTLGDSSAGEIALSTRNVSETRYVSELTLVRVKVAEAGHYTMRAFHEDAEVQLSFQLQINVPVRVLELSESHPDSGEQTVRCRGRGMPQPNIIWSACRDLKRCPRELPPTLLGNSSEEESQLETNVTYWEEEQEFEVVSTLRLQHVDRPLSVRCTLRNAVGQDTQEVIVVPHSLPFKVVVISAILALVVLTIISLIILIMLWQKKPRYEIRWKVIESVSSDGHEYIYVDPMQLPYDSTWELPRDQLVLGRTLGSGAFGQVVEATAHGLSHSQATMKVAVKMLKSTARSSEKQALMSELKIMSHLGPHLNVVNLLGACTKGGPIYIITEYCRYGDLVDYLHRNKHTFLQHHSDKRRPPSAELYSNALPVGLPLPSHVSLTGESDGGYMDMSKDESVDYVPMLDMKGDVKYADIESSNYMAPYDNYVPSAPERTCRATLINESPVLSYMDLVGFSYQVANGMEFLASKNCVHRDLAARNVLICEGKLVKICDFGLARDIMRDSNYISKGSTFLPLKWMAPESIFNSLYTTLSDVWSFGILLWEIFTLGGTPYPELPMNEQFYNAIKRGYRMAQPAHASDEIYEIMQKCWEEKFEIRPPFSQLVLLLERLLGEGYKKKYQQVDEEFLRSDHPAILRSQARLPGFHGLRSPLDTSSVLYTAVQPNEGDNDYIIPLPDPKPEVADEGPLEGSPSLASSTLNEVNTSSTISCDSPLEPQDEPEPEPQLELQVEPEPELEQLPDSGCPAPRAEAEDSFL

As a reminder, the pIC50 is the IC50 on a negative log10 scale, so that one unit is a factor of ten. Consider `CCCCNc1nc(Nc2ccccc2C)c2cnn(C)c2n1`, for which the negative logarithm of the IC50 (pIC50) on human EphB4 [1] and at human EphB4 [2] was more than 6.00 in each case.

On human EphB4 [2], `COCCNc1nc(Nc2ccccc2C)c2cnn(C)c2n1` showed a pIC50 of more than 6.00. With `Cc1cc(Cl)ccc1Nc1nc(NC2CCCC2)nc2c1cnn2C`, the pIC50 against human EphB4 [1] and against human EphB4 [2] was 5.00 to 6.00 each time. `CCCNc1nc(Nc2ccccc2C)c2cnn(C)c2n1`: the pIC50 against human EphB4 [2] is more than 6.00. Same read-out and setting: for `C=CCNc1nc(Nc2ccccc2C)c2cnn(C)c2n1` the value was more than 6.00; for `Cc1ccccc1Nc1nc(NC2CCCC2)nc2c1cnn2C`, more than 6.00. `Cc1ccccc1Nc1nc(N2CCOCC2)nc2c1cnn2C` gave a pIC50 on human EphB4 [2] of 5.00 to 6.00. Take `Cc1ccccc1Nc1nc(N2CCCC2)nc2c1cnn2C`: the pIC50 against human EphB4 [2] was 5.00 to 6.00. The same measure, in the same setting: the value for `Cc1ccccc1Nc1nc(Nc2ccccc2)nc2c1cnn2C` was 5.00 to 6.00. As for `Cc1ccccc1Nc1nc(NCc2ccccc2Cl)nc2c1cnn2C`, the pIC50 against human EphB4 [1] was more than 6.00; against human EphB4 [2], 5.00 to 6.00.

As to `CNc1nc(Nc2ccc(Cl)cc2C)c2cnn(C)c2n1` [[drawing]], the “Specificity profiling in the yeast growth assay: EGFR” value on EGFR turned out to be 0. The “Specificity profiling in the yeast growth assay: c-Met” value at c-Met turned out to be 0. For the same compound, the “Specificity profiling in the yeast growth assay: VEGFR-2” value on VEGFR-2 is recorded as 0. In addition, the “Specificity profiling in the yeast growth assay: ErbB2” value at ErbB2 is listed as 0. At VEGFR-1, the “Specificity profiling in the yeast growth assay: VEGFR-1” value was 0. For the same compound, the “Specificity profiling in the yeast growth assay: PDGFRb” value at PDGFRb was 0. At IGF1R, the “Specificity profiling in the yeast growth assay: IGF1R” value is 0. The “Specificity profiling in the yeast growth assay: InsR” value at InsR was 0. In turn, `CCNc1nc(Nc2ccc(C)cc2C)c2cnn(C)c2n1` gave a pIC50 against human EphB4 [2] of 5.00 to 6.00. On to `CCN(CC)CCNc1nc(Nc2ccccc2C)c2cnn(C)c2n1`, for which the pIC50 against human EphB4 [2] is more than 6.00. `COCCCNc1nc(Nc2ccccc2C)c2cnn(C)c2n1` gave a pIC50 against human EphB4 [2] of more than 6.00. On human EphB4 [2], `Cc1ccccc1Nc1nc(N(C)C)nc2c1cnn2C` had a negative logarithm of the IC50 (pIC50) of 5.00 to 6.00. As for `CCCNc1nc(Nc2ccc(Cl)cc2C)c2cnn(C)c2n1`, on human EphB4 [2], the pIC50 is 5.00 to 6.00. For `Cc1ccc(Nc2nc(NCc3ccco3)nc3c2cnn3C)c(C)c1`, on human EphB4 [2], the pIC50 is 5.00 to 6.00. For the compound `CCNc1nc(Nc2ccccc2C)c2cnn(C)c2n1`, the pIC50 on human EphB4 [1] and at human EphB4 [2] was more than 6.00 throughout. On human EphB4 [2], `Cc1ccccc1Nc1nc(Nc2ccc(F)cc2)nc2c1cnn2C` showed a pIC50 of 5.00 to 6.00. On the same count and under the same terms, the value for `Cc1ccccc1Nc1nc(NCc2ccccc2)nc2c1cnn2C` was 5.00 to 6.00. Take `CNc1nc(Nc2ccc(Cl)cc2C)c2cnn(C)c2n1` [drawing 56]: the pIC50 on human EphB4 [1] is less than 5.00; against human EphB4 [2] it was 5.00 to 6.00.

As to `Cc1ccccc1Nc1nc(NCc2ccco2)nc2c1cnn2C`, the pIC50 on human EphB4 [1] was 5.00 to 6.00; at human EphB4 [2] it was more than 6.00. For the compound `Cc1ccccc1Nc1nc(N2CCN(C(=O)c3ccco3)CC2)nc2c1cnn2C`, on human EphB4 [2], the pIC50 is 5.00 to 6.00. Still for that read-out and setting: the value for `CNc1nc(Nc2ccccc2C)c2cnn(C)c2n1` was more than 6.00; that for `CNc1nc(Nc2ccc(C)cc2C)c2cnn(C)c2n1` was 5.00 to 6.00.
